# Laboratory results published in PubChem BioAssay (NCI).
#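 GI50 is the concentration that inhibits growth by half. At the TGI there is no net growth.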
# Columns and labels:
# Test in all cases: growth of human tumour cells (NCI), 384-well format
# HCT-116 colon = system: HCT-116 colon
# UACC-257 melanoma = system: UACC-257 melanoma
# ACHN renal = system: ACHN renal
# M14 melanoma = system: M14 melanoma
# CCRF-CEM leukemia = system: CCRF-CEM leukemia
# OVCAR-8 ovarian = system: OVCAR-8 ovarian
# 786-0 renal = system: 786-0 renal
# U251 glioblastoma = system: U251 glioblastoma
# NCI-H460 NSCLC = system: NCI-H460 NSCLC
# SF-539 CNS = system: SF-539 CNS
# NCI/ADR-RES ovarian = system: NCI/ADR-RES ovarian
# HOP-92 NSCLC = system: HOP-92 NSCLC
# MCF7 breast = system: MCF7 breast
# HL-60(TB) leukemia = system: HL-60(TB) leukemia
# NCI-H322M lung = system: NCI-H322M lung
# BT-549 breast = system: BT-549 breast
# A549 NSCLC = system: A549 NSCLC
# PC-3 prostate = system: PC-3 prostate
# SW-620 colon = system: SW-620 colon
# HCT-15 colon = system: HCT-15 colon
# A498 renal = system: A498 renal
# K-562 leukemia = system: K-562 leukemia
# MALME-3M melanoma = system: MALME-3M melanoma
# SN12C renal = system: SN12C renal
# OVCAR-3 ovarian = system: OVCAR-3 ovarian
# SNB-19 CNS = system: SNB-19 CNS
# UACC-62 melanoma = system: UACC-62 melanoma
# HT29 colon = system: HT29 colon
# SF-268 CNS = system: SF-268 CNS
# IGROV1 ovarian = system: IGROV1 ovarian
# SK-MEL-28 melanoma = system: SK-MEL-28 melanoma
# NCI-H23 lung = system: NCI-H23 lung
# MDA-MB-468 breast = system: MDA-MB-468 breast
# RXF 393 renal = system: RXF 393 renal
# OVCAR-5 ovarian = system: OVCAR-5 ovarian
# OVCAR-4 ovarian = system: OVCAR-4 ovarian
# MOLT-4 leukemia = system: MOLT-4 leukemia
# RPMI-8226 leukemia = system: RPMI-8226 leukemia
# T-47D breast = system: T-47D breast
# UO-31 renal = system: UO-31 renal
# DU-145 prostate = system: DU-145 prostate
# COLO 205 colon = system: COLO 205 colon
# SK-OV-3 ovarian = system: SK-OV-3 ovarian
# HOP-62 NSCLC = system: HOP-62 NSCLC
# NCI-H226 lung = system: NCI-H226 lung
# CAKI-1 renal = system: CAKI-1 renal
# SK-MEL-5 melanoma = system: SK-MEL-5 melanoma
# LOX IMVI melanoma = system: LOX IMVI melanoma
# MDA-MB-231 breast = system: MDA-MB-231 breast
# HCC-2998 colon = system: HCC-2998 colon
# MDA-MB-435 melanoma = system: MDA-MB-435 melanoma
# SR leukemia = system: SR leukemia
# NCI-H522 lung = system: NCI-H522 lung
# SF-295 CNS = system: SF-295 CNS
# KM12 colon = system: KM12 colon
# SK-MEL-2 melanoma = system: SK-MEL-2 melanoma
# TK-10 renal = system: TK-10 renal
smiles,measurement,setting,value
COCCNCc1ccc(-c2cc3nccc(Oc4ccc(NC(=S)NC(=O)Cc5ccc(F)cc5)cc4F)c3s2)nc1,GI50,HCT-116 colon,1280 nM
same,TGI,HCT-116 colon,2560 nM
same,GI50,UACC-257 melanoma,1090 nM
same,TGI,UACC-257 melanoma,2290 nM
same,GI50,ACHN renal,1720 nM
same,TGI,ACHN renal,3110 nM
same,GI50,M14 melanoma,1580 nM
same,TGI,M14 melanoma,2940 nM
same,GI50,CCRF-CEM leukemia,868 nM
same,TGI,CCRF-CEM leukemia,2070 nM
same,GI50,OVCAR-8 ovarian,1420 nM
same,TGI,OVCAR-8 ovarian,2740 nM
same,GI50,786-0 renal,1480 nM
same,TGI,786-0 renal,2820 nM
same,GI50,U251 glioblastoma,1300 nM
same,TGI,U251 glioblastoma,2580 nM
same,GI50,NCI-H460 NSCLC,1420 nM
same,TGI,NCI-H460 NSCLC,2750 nM
same,GI50,SF-539 CNS,969 nM
same,TGI,SF-539 CNS,2150 nM
same,GI50,NCI/ADR-RES ovarian,1580 nM
same,TGI,NCI/ADR-RES ovarian,2930 nM
same,GI50,HOP-92 NSCLC,1260 nM
same,TGI,HOP-92 NSCLC,2520 nM
same,GI50,MCF7 breast,1480 nM
same,TGI,MCF7 breast,2810 nM
same,GI50,HL-60(TB) leukemia,621 nM
same,TGI,HL-60(TB) leukemia,1750 nM
same,GI50,NCI-H322M lung,1700 nM
same,TGI,NCI-H322M lung,3090 nM
same,GI50,BT-549 breast,1600 nM
same,TGI,BT-549 breast,2950 nM
same,GI50,A549 NSCLC,1680 nM
same,TGI,A549 NSCLC,3070 nM
same,GI50,PC-3 prostate,1810 nM
same,TGI,PC-3 prostate,3210 nM
same,GI50,SW-620 colon,1550 nM
same,TGI,SW-620 colon,2920 nM
same,GI50,HCT-15 colon,1710 nM
same,TGI,HCT-15 colon,3110 nM
same,GI50,A498 renal,1560 nM
same,TGI,A498 renal,2900 nM
same,GI50,K-562 leukemia,177 nM
same,TGI,K-562 leukemia,343 nM
same,GI50,MALME-3M melanoma,1540 nM
same,TGI,MALME-3M melanoma,2890 nM
same,GI50,SN12C renal,1140 nM
same,TGI,SN12C renal,2350 nM
same,GI50,OVCAR-3 ovarian,1890 nM
same,TGI,OVCAR-3 ovarian,3310 nM
same,GI50,SNB-19 CNS,1780 nM
same,TGI,SNB-19 CNS,3190 nM
same,GI50,UACC-62 melanoma,1520 nM
same,TGI,UACC-62 melanoma,2860 nM
same,GI50,HT29 colon,1160 nM
same,TGI,HT29 colon,2410 nM
same,GI50,SF-268 CNS,1570 nM
same,TGI,SF-268 CNS,2920 nM
same,GI50,IGROV1 ovarian,1640 nM
same,TGI,IGROV1 ovarian,3540 nM
same,GI50,SK-MEL-28 melanoma,1500 nM
same,TGI,SK-MEL-28 melanoma,2830 nM
same,GI50,NCI-H23 lung,486 nM
same,TGI,NCI-H23 lung,2200 nM
same,GI50,MDA-MB-468 breast,1850 nM
same,TGI,MDA-MB-468 breast,3250 nM
same,GI50,RXF 393 renal,1590 nM
same,TGI,RXF 393 renal,2940 nM
same,GI50,OVCAR-5 ovarian,1940 nM
same,TGI,OVCAR-5 ovarian,3380 nM
same,GI50,OVCAR-4 ovarian,1090 nM
same,TGI,OVCAR-4 ovarian,2300 nM
same,GI50,MOLT-4 leukemia,582 nM
same,TGI,MOLT-4 leukemia,1780 nM
same,GI50,RPMI-8226 leukemia,614 nM
same,TGI,RPMI-8226 leukemia,1820 nM
same,GI50,T-47D breast,1480 nM
same,TGI,T-47D breast,2810 nM
same,GI50,UO-31 renal,1600 nM
same,TGI,UO-31 renal,2950 nM
same,GI50,DU-145 prostate,1860 nM
same,TGI,DU-145 prostate,3290 nM
same,GI50,COLO 205 colon,1610 nM
same,TGI,COLO 205 colon,2980 nM
same,GI50,SK-OV-3 ovarian,1550 nM
same,TGI,SK-OV-3 ovarian,2890 nM
same,GI50,HOP-62 NSCLC,1930 nM
same,TGI,HOP-62 NSCLC,3350 nM
same,GI50,NCI-H226 lung,1950 nM
same,TGI,NCI-H226 lung,3620 nM
same,GI50,CAKI-1 renal,1520 nM
same,TGI,CAKI-1 renal,2860 nM
same,GI50,SK-MEL-5 melanoma,1260 nM
same,TGI,SK-MEL-5 melanoma,2520 nM
same,GI50,LOX IMVI melanoma,2020 nM
same,TGI,LOX IMVI melanoma,3460 nM
same,GI50,MDA-MB-231 breast,1440 nM
same,TGI,MDA-MB-231 breast,2760 nM
same,GI50,HCC-2998 colon,1850 nM
same,TGI,HCC-2998 colon,3260 nM
same,GI50,MDA-MB-435 melanoma,1860 nM
same,TGI,MDA-MB-435 melanoma,3270 nM
same,GI50,SR leukemia,187 nM
same,TGI,SR leukemia,330 nM
same,GI50,NCI-H522 lung,1670 nM
same,TGI,NCI-H522 lung,3030 nM
same,GI50,SF-295 CNS,875 nM
same,TGI,SF-295 CNS,2110 nM
same,GI50,KM12 colon,385 nM
same,TGI,KM12 colon,1440 nM
same,GI50,SK-MEL-2 melanoma,1960 nM
same,TGI,SK-MEL-2 melanoma,3380 nM
same,GI50,TK-10 renal,1780 nM
same,TGI,TK-10 renal,3170 nM
